Key:
Assay type in all cases: physicochemical
collagen = assay: Differential Scanning Calorimetry (DSC) scan of collagen transition temperature; conditions: for compatibility of cytotoxic drug with collagen: judged from collagen transition temperature
[1] = optical absorbance at 410 nm (optical opacity) of aqueous collagen compositions, 1 mm pathlength; conditions: 0.25M additive, 6.5 weight percent collagen, pH 9.1, 2° to 8° C., 10 minutes
Description: Aliquots (0.5 mL) of each of the compositions were placed in microcuvet having a 1 mm pathlength at different temperatures for 10 minutes wherein the first aliquot was stored at about 12° C, the second aliquot was stored at about 8° C. and the third aliquot was stored at about 4° C. The optical opacity of each sample was then measured at 30 second intervals by determining the absorbance of light (410 nm) through the microcuvet. Lower absorbance in each case corresponds to greater optical clarity at 410 nm.
Three identical aqueous collagen compositions were prepared as above with the exception that the amount of fluorouracil incorporated into the compositions were varied to be 16.65 mg/mL, 22.2 mg/mL and 33.3 mg/mL respectively. The resulting compositions were stored at 4° C. as aliquots (0.5 mL) in microcuvets having a 1 mm pathlength for 10 minutes and the optical opacity of each sample was measured at 30 second intervals by determining the absorbance of light (410 nm) through the microcuvet. Lower absorbance in each case corresponds to greater optical clarity at 410 nm.
Both compositions were then stored at from about 2° to 8° C. as aliquots (0.5 mL) in microcuvets having a 1 mm pathlength for 10 minutes and the optical opacity of each sample was measured at 15 second intervals by determining the absorbance of light (410 nm) through the microcuvet. […]

[2] = optical appearance of aqueous collagen compositions on storage
Description: Mixing was conducted by repeated transfers between two syringes connected by a mixing adapter. […] The results of these scans are illustrated in FIG. 5 and 6, respectively.
A second study was conducted to determine the amount of fluorouracil required to effect clarification on an opaque aqueous collagen composition. Specifically, aqueous collagen compositions were formulated to contain collagen (21.7 mg/mL), 0.033M phosphate buffer and varying amounts of fluorouracil. Each composition was then stored at about 2° C. to 8° C. for 17 days and the optical appearance of the composition measured periodically.
Specifically, in this example, the concentration of methotrexate in the collagen composition was varied and the collagen compositions were stored for 1 day and 3 days at either at 2° C. to 8° C. or at room temperature. The results at 3 days were the same as those found after 1 day and, accordingly, Table III below sets forth only the results from day 1.
A second study was conducted by preparing collagen compositions having 0.033M potassium phosphate buffer and […]. The pH of the solution was adjusted by the addition of HCl or NaOH as necessary to modify the pHs of the compositions to approximately 5, 7, 8 and 9. The compositions were stored at either room temperature or at 2-8° C. The optical appearance of these compositions was evaluated at 1 and 11 days after storage.

Structure (SMILES): N.N.[Cl][Pt][Cl] [cisplatin, cis-diamino dichlororplatinum (II)]
- cross-linking to collagen (increase in transition temperature over time) (collagen; room temperature, up to 8 hours): cross-linking (i.e., covalent bonding) of the cisplatin to the collagen

Structure (SMILES): O=c1[nH]cc(F)c(=O)[nH]1 [fluorouracil, 5-fluoro-2,4-(1H, 3H)pyrimidinedione]
- effect of additive on clarifying the collagen composition (FIG. 11) [1]: only fluorouracil has any significant effect on clarifying the collagen composition
- compatibility of cytotoxic drug with collagen (collagen): compatible cytotoxic drug
- clarifying effect on opaque collagen composition ([2]; fluorouracil at 20 mg/mL, 2° C. to 8° C.): some clarifying affect on the opaque collagen composition

Structure (SMILES): CN(Cc1cnc2nc(N)nc(N)c2n1)c1ccc(C(=O)N[C@@H](CCC(=O)O)C(=O)O)cc1 [methotrexate]
- compatibility of cytotoxic drug with collagen (collagen): compatible cytotoxic drug
- effect of refrigeration and high concentration on optical clarity ([2]; refrigeration, high concentrations of methotrexate): both refrigeration and high concentrations of methotrexate are effective in effecting optical clarity
